# Measurements from ChEMBL document CHEMBL3232821, “1,2-benzisothiazol-3-one derivatives as a novel class of small-molecule caspase-3 inhibitors” (Bioorg Med Chem, 2014).
# Activity calls are given as the source filed them. The rule behind the calls is not given here.
# Assays:
# [1] = molecular target: T1, Caspase-3 (Homo sapiens, UniProt P42574); assay: Inhibition of human recombinant caspase-3 using […] as substrate after 10 mins by fluorescence assay
# T1 sequence (P42574 whole entry): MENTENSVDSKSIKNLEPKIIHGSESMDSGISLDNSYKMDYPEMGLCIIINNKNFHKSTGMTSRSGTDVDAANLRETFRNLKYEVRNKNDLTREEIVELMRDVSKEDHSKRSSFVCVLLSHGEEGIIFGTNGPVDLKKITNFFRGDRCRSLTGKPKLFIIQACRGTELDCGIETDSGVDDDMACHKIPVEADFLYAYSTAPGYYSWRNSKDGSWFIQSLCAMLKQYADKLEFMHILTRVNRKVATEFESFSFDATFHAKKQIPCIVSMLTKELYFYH
# [2] = molecular target: T2, Caspase-7 (Homo sapiens, UniProt P55210); assay: Inhibition of human recombinant caspase-7 using Ac-DEVD-AMC as substrate after 10 mins by fluorescence assay
# T2 sequence (P55210 whole entry): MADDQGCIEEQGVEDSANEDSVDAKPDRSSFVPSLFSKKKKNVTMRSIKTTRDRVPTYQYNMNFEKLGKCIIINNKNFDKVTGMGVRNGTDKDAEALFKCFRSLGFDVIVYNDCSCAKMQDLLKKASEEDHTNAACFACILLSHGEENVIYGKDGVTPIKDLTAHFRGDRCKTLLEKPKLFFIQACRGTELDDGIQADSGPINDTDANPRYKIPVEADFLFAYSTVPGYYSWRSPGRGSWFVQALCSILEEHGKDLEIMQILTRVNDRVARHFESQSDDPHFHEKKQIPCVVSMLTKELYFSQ
# [3] = Solubility of the compound in water; assay type: physicochemical; details: buffer
# [4] = tested on: Jurkat; assay: Antiapoptotic activity in human Jurkat T cells assessed as protection against camptothecin-induced apoptosis at 50 uM treated 2 hrs before camptothecin addition measured after 4 hrs using annexin V-FITC and 7-AAD staining by flow cytometry; assay type: functional, cell-based
IC50 [1] [µM],IC50 [2] [µM],solubility [3],Compound,Activity [4]
0.00115,0.909,Insoluble,O=C(Nc1ccc(N2CCOCC2)cc1)n1sc2ccccc2c1=O,–
–,248,soluble,O=C(NCc1ccc(N2CCOCC2)cc1)n1sc2ccccc2c1=O,Active
–,100,–,O=C(Cn1sc2ccccc2c1=O)Nc1ccc(N2CCOCC2)cc1,–
–,137,–,O=c1[nH]sc2ccccc12,–
